From publication PMC11397358, “Cytotoxic Activity of Novel GnRH Analogs Conjugated with Mitoxantrone in Ovarian Cancer Cells” (Molecules, 2024)

Columns and labels:
SKOV-3 cells [1] = test: Cell proliferation (MTT) assay; type: cell-based, human; conditions: over time (days 2–4) and at various concentrations
Protocol: The antiproliferative effects of GnRH-mitoxantrone conjugates, Con-3, and Con-7, were evaluated using the SKOV-3 cells. The Con-3 and Con-7 conjugates decreased the proliferation rate of SKOV-3 cells in a dose-dependent manner on days 2, 3, and 4 (Figure 3A–C).
Figure 3 Antiproliferative activity of the GnRH analogs. Decrease in the proliferation rate of the SKOV3 cells after their treatment with increasing concentrations of Con-3, Con-7, Con-P1 or Con-P2 for 2 days (A), 3 days (B) and 4 days (C) at 37 °C. At the end of the incubation, the cells were further incubated with 0.5 mg/mL MTT for 4 h at room temperature and the formed purple formazan crystals were quantified by measuring absorbance at 594 nm. The means ± S.E (triplicate determination) are shown from a representative experiment performed 3 times with similar results. The proliferation rates of cells treated with 1 μΜ of GnRH analogs were used to plot the graph D which depicts the decrease in cell growth over the incubation time (D). Statistical analysis was performed using one-way ANOVA.
At the end of the incubation, the cells were further incubated with 0.5 mg/mL MTT for 4 h at room temperature and the formed purple formazan crystals were quantified by measuring absorbance at 594 nm. The means ± S.E (triplicate determination) are shown from a representative experiment performed 3 times with similar results. […] Statistical analysis was performed using one-way ANOVA.
SKOV-3 cells (kindly provided by Prof. Dimitrios Mavroudis, University of Crete) were seeded into 96-well plates at a density of 6000 cells/well, in triplicates, and incubated overnight in Dulbecco’s modified Eagle’s medium/F12 (DMEM/F12) (1:1), containing 3.15 g/L glucose and 10% bovine calf serum (BCS, HyClone), at 37 °C and 5% CO2. At the end of the incubation, the culture medium was replaced with a fresh one containing 3.15 g/L glucose and 2% BCS, with or without increasing concentrations of GnRH analogs or mitoxantrone (0.1 nM–10 µM), and the cells were further incubated at 37 °C and 5% CO2 for 2, 3 and 4 days. Subsequently, (3-(4,5-dimethylthiazol-2-yl)-2,5- diphenyl tetrazolium bromide) (MTT) was added at a final concentration of 0.5 mg/mL, and the mixtures were incubated for 4 h at room temperature in the dark, allowing the viable cells to reduce the MTT to formazan crystals. The supernatants were removed, and the purple formazan crystals were dissolved in isopropanol containing 4% HCl (100 μL/well) by mixing thoroughly for 30 min in the dark, before the quantification of the absorbance at 594 nm using a Dynatech MicroElisa reader (Chantilly, VA, USA). The percentage of the proliferation rate (% proliferation rate) treated with a GnRH analog was determined based on the following equation: % proliferation rate = (absorbance of cells treated with a GnRH analog/absorbance of untreated cells) × 100. The % viability of the untreated cells (control) was defined as 100%. The % viabilities were analyzed by nonlinear regression analysis, using Prism 8.0 (GraphPad Software, Prism 8.0, San Diego, CA, USA).

SKOV-3 cells [2] = test: Annexin V / propidium iodide apoptosis assay by flow cytometry; type: cell-based, human; conditions: 1 μM, 2, 3 and 4 days; flow cytometry
Description: We next evaluate the abilities of Con-3 and Con-7 at concentrations of 1 μΜ to induce cell death by determining the percentages of live, apoptotic and necrotic cells after treatment of SKOV-3 cells with the GnRH conjugates. As shown in Figure 5 and Figures S1–S3 on day 2, the majority of SKOV-3 cells were viable (Q4 quadrant), treated either with Con-3, Con-7 or mitoxantrone, whereas the percentage of apoptotic cells (late or early apoptotic) (Q1, Q2 quadrants) was only 10.1%, 10.87% and 13.1% after treatment with Con-3, Con-7 or mitoxantrone, respectively. […] Cell viability further decreased on day 4 with a concomitant increase in apoptosis. Specifically, the percentage of apoptotic cells was 53.5%, 59.6% and 54.3% after treatment with Con-3, Con-7 or mitoxantrone (Figure 5 and Figures S7–S9). In all phases, the percentage of the necrotic and late apoptotic cells (Q3 quadrant) was very small.
Figure 5 Determination of viability, apoptosis, or necrosis of SKOV-3 cells after their treatment with 1 μM Con-3, Con-7, or mitoxantrone for 2, 3, and 4 days at 37 °C. At the end of the incubation the cells were further incubated in binding buffer supplied by Biotium, (CF488A Apoptosis Detection kit) and analyzed on a flow cytometer (excitation 488 nm), in the FITC channel (filter 530 nm) for detection of the Annexin V-positive cellsand in the propidium iodide, or PI, channel (filter 616 nm) for detection of the PI-positive cells. The figures are from a representative experiment performed three times with similar results. A higher resolution of the images in Figure 5 is provided in the Supplementary Material (Figures S1–S9). TEXT PRINTED IN THE PICTURE: Con-3: Q3: 4,19 (Day 2); Q2: 7,12 (Day 2); Q4: 85,7 (Day 2); Q1: 2,98 (Day 2); Q3: 5,31 (Day3); Q2: 19,5 (Day3); Q4: 58,0 (Day3); Q1: 17,1 (Day3); Q3: 3,54 (Day4); Q2: 17,1 (Day4); Q4: 43,0 (Day4); Q1: 36,4 (Day4) | Con-7: Q3: 6,31 (Day 2); Q2: 7,74 (Day 2); Q4: 82,8 (Day 2); Q1: 3,13 (Day 2); Q3: 8,11 (Day3); Q2: 19,8 (Day3); Q4: 56,8 (Day3); Q1: 15,3 (Day3); Q3: 3,48 (Day4); Q2: 19,7 (Day4); Q4: 36,9 (Day4); Q1: 39,9 (Day4) | Mitoxantrone: Q3: 6,49 (Day 2); Q2: 9,40 (Day 2); Q4: 80,4 (Day 2); Q1: 3,67 (Day 2); Q3: 7,13 (Day3); Q2: 18,9 (Day3); Q4: 61,0 (Day3); Q1: 13,1 (Day3); Q3: 2,72 (Day4); Q2: 17,3 (Day4); Q4: 43,0 (Decimal sign as read) (Day4); Q1: 37,0 (Day4) DOUBTS OF THE COPYIST ABOUT THIS PICTURE: All quadrant values: the print is very small, and the decimal sign may be a comma or a point in every value / Con-3, Day 2, Q4: 85,7 or 86,7 / Con-3, Day 2, Q1: 2,98 or 2,96 / Con-3, Day3, Q3: 5,31 or 6,31 / Con-3, Day3, Q2: 19,5 or 19,6 / Con-3, Day3, Q4: 58,0 or 56,0 / Con-3, Day4, Q3: 3,54 or 3,64 / Con-3, Day4, Q1: 36,4 or 38,4 / Con-7, Day 2, Q3: 6,31 or 8,31 / Con-7, Day 2, Q4: 82,8 or 82,6 / Con-7, Day 2, Q1: 3,13 or 3,15 / Con-7, Day3, Q3: 8,11 or 6,11 / Con-7, Day3, Q2: 19,8 or 19,6 / Con-7, Day3, Q4: 56,8 or 58,8 / Con-7, Day3, Q1: 15,3 or 15,8 / Con-7, Day4, Q3: 3,48 or 3,46 / Con-7, Day4, Q4: 36,9 or 38,9 / Con-7, Day4, Q1: 39,9 or 38,9 / Mitoxantrone, Day 2, Q3: 6,49 or 8,49 / Mitoxantrone, Day 2, Q2: 9,40 or 8,40 / Mitoxantrone, Day 2, Q4: 80,4 or 60,4 / Mitoxantrone, Day 2, Q1: 3,67 or 3,87 / Mitoxantrone, Day3, Q2: 18,9 or 16,9 / Mitoxantrone, Day3, Q4: 61,0 or 81,0 / Mitoxantrone, Day3, Q1: 13,1 or 15,1 […]
SKOV-3 cells were seeded into 12-well plates at a density of 50,000 cells/well and incubated overnight in DMEM/F12 (1:1) containing 3.15 g/L glucose and 10% BCS, at 37 °C and 5% CO2. At the end of the incubation, the culture medium was replaced with a fresh one containing 3.15 g/L glucose and 2% BCS, with or without GnRH analogs or mitoxantrone at a concentration of 1 μΜ, and the cells were further incubated at 37 °C and 5% CO2 for 2, 3 and 4 days. […]

human GnRH-R = molecular target: T1, human GnRH-R (Homo sapiens, UniProt P30968); test: Calcium-based (fura-2) kinetic assay of GnRH-R agonism; type: cell-based; conditions: HEK293 cells transiently transfected with human GnRH-R; fura-2 ratio, 96-well, Flexstation 3; experiments performed a minimum of three times; read-out: EC50 for increase in intracellular [Ca2+]
T1 construct: host or cells: HEK293 (ATCC CRL-1573)
T1 sequence (P30968 1-328): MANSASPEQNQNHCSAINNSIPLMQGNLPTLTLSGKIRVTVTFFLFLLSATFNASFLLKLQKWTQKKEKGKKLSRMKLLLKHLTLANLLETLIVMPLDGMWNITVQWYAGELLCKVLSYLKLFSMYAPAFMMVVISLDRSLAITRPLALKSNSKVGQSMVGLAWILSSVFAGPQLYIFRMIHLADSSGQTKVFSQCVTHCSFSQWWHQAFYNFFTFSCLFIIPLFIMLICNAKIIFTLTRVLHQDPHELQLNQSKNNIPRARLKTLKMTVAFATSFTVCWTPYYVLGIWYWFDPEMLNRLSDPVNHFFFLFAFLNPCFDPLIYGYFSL
Protocol: For this purpose, fura-2-based kinetic assays to monitor the [Ca^2+] were performed in real-time using suspensions of HEK293 cells transiently transfected with the human GnRH-R (Figure 2A–I).
HEK293 cells transfected with the human GnRH-R served as a platform with which to test for agonist actions of individual test compounds. These cells were loaded with the ratiometric Ca^2+ indicator fura-2 so that the change in intracellular [Ca^2+] in response to agonist stimulation could be monitored in real time in a 96-well format. For these assays, the individual test compounds were administered at the 100 s time point.
Two days post-transfection, the HEK293 cells were harvested via trypsinization to obtain single-cell suspensions that were plated at 80% density on rat tail collagen-coated 96-well Costar 3904 plates for loading with the ratiometric Ca^2+ indicator fura-2. Measurements of the intracellular [Ca^2+] were performed using a Flexstation 3 microplate reader (Molecular Devices, Sunnyvale, CA, USA). Briefly, test solutions containing GnRH-R agonists were administered to individual wells of a 96-well plate using the automated pipetting feature of the Flexstation under computer control. […] Emitted light was detected at 505/15 nm, and the ratio of emission light intensity due to excitation at 335/9 and 375/9 nm was calculated. […]

EC50 (human GnRH-R) | Structure (SMILES) | effect on proliferation of SKOV-3 cells, in words (SKOV-3 cells [1]) | effect on viability of SKOV-3 cells, in words (SKOV-3 cells [2])
 | CCNC(=O)[C@@H]1CCCN1C(=O)[C@H](CCCNC(=N)N)NC(=O)[C@H](CC(C)C)NC(=O)[C@@H](CCCCN)NC(=O)[C@H](Cc1ccc(O)cc1)NC(=O)[C@H](CO)NC(=O)[C@H](Cc1c[nH]c2ccccc12)NC(=O)[C@H](Cc1c[nH]cn1)NC(=O)[C@@H]1CCC(=O)N1 [Con-P1] | did not affect the proliferation of SKOV-3 cells | did not affect the viability of SKOV-3 cells
0.67 nM | CCNC(=O)[C@@H]1CCCN1C(=O)[C@H](CCCNC(=N)N)NC(=O)[C@H](CC(C)C)NC(=O)[C@@H](CS)NC(=O)[C@H](Cc1ccc(O)cc1)NC(=O)[C@H](CO)NC(=O)[C@H](Cc1c[nH]c2ccccc12)NC(=O)[C@H](Cc1c[nH]cn1)NC(=O)[C@@H]1CCC(=O)N1 [Con-P2] |  | 
